For nine compounds, IC50, inhibition and Activity results are on record in ChEMBL document CHEMBL4387747, “Discovery of naphthacemycins as a novel class of PARP1 inhibitors” (Bioorg Med Chem Lett, 2019).

pIC50: −log10 of the molar value. Active and inactive are the calls of the source. No cut-off for these calls is given here. A value given as a limit tells only on which side of the number the result lay.

The subject of one test is MDA-MB-231. The test is described as follows: cells. The following applies: Homo sapiens.
Test [1] concerns the target T1, Poly [ADP-ribose] polymerase 1 (Homo sapiens, UniProt P09874). The test is described as follows: Inhibition of recombinant human full length C-terminal His-tagged PARP1 expressed in Sf9 insect cells preincubated for 15 mins followed by NAD+ addition and measured after 40 mins by fluorescence based assay.
The test system of test [2] is MDA-MB-436.
Another test concerns MCF7. The test is described as follows: cells. The following applies: Homo sapiens.
Test [3] addresses T1, Poly [ADP-ribose] polymerase 1. Nature of the test: Inhibition of PARP1 in human MDA-MB-436 cells harboring BRCA1 mutation assessed as increase in gammaH2AX expression level incubated for 24 hrs by Western blot analysis. The test is classed as cell-based.
The target is the same in test [4]. The test is described as follows: Inhibition of PARP1 in MMS treated human MDA-MB-436 cells harboring BRCA1 mutation assessed as increase in PARP1 trapping in chromatin-bound fraction incubated for 4 hrs by Western blot analysis. The test is classed as cell-based.
For test [5] the target is unchanged. The test is described as follows: Inhibition of PARP1 in human MDA-MB-231 cells assessed as decrease in PAR expression level incubated for 3 hrs by Western blot analysis. The test is classed as cell-based.
In test [6] the test system is MDA-MB-436. Nature of the test: Effect on whole cell PARP1 protein levels in MMS treated human MDA-MB-436 cells harboring BRCA1 mutation at 5 to 45 uM incubated for 4 hrs by Western blot analysis. The test is classed as functional, cell-based.
Test [7] deals with T1, Poly [ADP-ribose] polymerase 1. The test is described as follows: Inhibition of PARP1 in human MDA-MB-231 cells assessed as increase in gammaH2AX expression level incubated for 24 hrs by Western blot analysis. The test is classed as cell-based.
For test [8] the target is unchanged. Nature of the test: Inhibition of PARP1 in human MDA-MB-436 cells harboring BRCA1 mutation assessed as decrease in PAR expression level incubated for 3 hrs by Western blot analysis. The test is classed as cell-based.

T1 sequence (P09874 whole entry): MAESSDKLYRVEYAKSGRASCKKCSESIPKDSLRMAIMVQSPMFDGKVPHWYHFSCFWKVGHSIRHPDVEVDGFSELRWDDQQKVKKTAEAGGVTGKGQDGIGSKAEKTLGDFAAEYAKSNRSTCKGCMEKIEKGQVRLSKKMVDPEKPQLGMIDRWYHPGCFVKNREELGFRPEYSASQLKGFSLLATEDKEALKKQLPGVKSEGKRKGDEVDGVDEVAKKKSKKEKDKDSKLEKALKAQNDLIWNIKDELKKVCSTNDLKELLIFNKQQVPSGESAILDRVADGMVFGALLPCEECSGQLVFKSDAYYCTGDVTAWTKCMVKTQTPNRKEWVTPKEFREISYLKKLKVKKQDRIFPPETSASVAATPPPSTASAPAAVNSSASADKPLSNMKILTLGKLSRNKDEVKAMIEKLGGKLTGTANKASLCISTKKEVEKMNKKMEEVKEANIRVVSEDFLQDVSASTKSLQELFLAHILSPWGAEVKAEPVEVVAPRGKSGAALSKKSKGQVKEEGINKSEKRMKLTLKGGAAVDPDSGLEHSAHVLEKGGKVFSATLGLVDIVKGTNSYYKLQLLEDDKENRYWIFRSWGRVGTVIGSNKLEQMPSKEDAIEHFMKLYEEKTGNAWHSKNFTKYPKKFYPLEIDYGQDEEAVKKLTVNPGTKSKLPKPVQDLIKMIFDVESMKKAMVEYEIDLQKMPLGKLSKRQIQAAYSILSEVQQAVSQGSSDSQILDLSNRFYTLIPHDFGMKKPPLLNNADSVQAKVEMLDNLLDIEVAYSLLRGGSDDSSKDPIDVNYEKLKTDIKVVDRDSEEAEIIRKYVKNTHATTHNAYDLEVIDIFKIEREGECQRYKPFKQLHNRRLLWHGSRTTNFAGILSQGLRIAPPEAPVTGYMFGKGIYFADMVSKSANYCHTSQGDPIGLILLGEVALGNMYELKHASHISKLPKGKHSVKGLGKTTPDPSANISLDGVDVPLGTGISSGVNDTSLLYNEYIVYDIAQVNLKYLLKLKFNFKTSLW

With `COc1c(Cl)c(O)c(Cl)c(C)c1-c1cc(O)c(Cl)c2cc3c(c(O)c12)C(=O)c1c(O)c(Cl)c(O)c(Cl)c1C3(C)C`, the pIC50 with MDA-MB-231 was below 4.40; in test [1], 5.74; in the test with MDA-MB-436 [2] it was 5.31; in the test on MCF7 it was 4.54.
For `COc1cc(O)c(Cl)c(C)c1-c1cc(O)cc2cc3c(c(O)c12)C(=O)c1c(O)cc(O)cc1C3(C)C` the same measures were below 4.40, 5.31, 4.98 and below 4.40.
Regarding `O=C(c1cc(Cc2n[nH]c(=O)c3ccccc23)ccc1F)N1CCN(C(=O)C2CC2)CC1` [OLAPARIB], the pIC50 is below 4.40 in the test on MDA-MB-231, 6.66 with MDA-MB-436 [2] and below 4.40 with MCF7.
On to `COc1cc(O)c(Cl)c(C)c1-c1cc(O)c(Br)c2cc3c(c(O)c12)C(=O)c1c(O)cc(O)cc1C3(C)C`, for which the pIC50 in the test on MDA-MB-231 is below 4.40; in test [1], 5.34; in the test on MDA-MB-436 [2], 4.89; in the test on MCF7, below 4.40.
`COc1cc(O)cc(C)c1-c1cc(O)cc2cc3c(c(O)c12)C(=O)c1c(cc(O)c(Cl)c1O)C3(C)C`: the negative logarithm of the IC50 (pIC50) in the test on MDA-MB-231 was below 4.40; in test [1], 4.81; in the test with MDA-MB-436 [2], 4.70; in the test on MCF7 it was below 4.40.
For the compound `COc1cc(O)c(Cl)c(C)c1-c1cc(O)c(Cl)c2cc3c(c(O)c12)C(=O)c1c(O)c(Cl)c(O)c(Cl)c1C3(C)C`, the negative logarithm of the IC50 (pIC50) in the test with MDA-MB-231 was below 4.40; in test [1], 5.23; in the test with MDA-MB-436 [2], 5.03; in the test on MCF7 it was below 4.40.
Turning to `COc1cc(O)c(Cl)c(C)c1-c1cc(O)c(Cl)c2cc3c(c(O)c12)C(=O)c1c(cc(O)c(Cl)c1O)C3(C)C`, the pIC50 with MDA-MB-231 is below 4.40; in [1], 5.18; in the test on MDA-MB-436 [2], 5.06; in the test with MCF7 it was below 4.40.
For the compound `COc1cc(O)c(Cl)c(C)c1-c1cc(O)cc2cc3c(c(O)c12)C(=O)c1c(cc(O)c(Cl)c1O)C3(C)C`, the pIC50 with MDA-MB-231 was 4.73; in test [1], 5.05; in the test on MDA-MB-436 [2], 5.04; with MCF7 it was 4.78.
Take `COc1cc(O)c(Cl)c(C)c1-c1cc(O)cc2cc3c(c(O)c12)C(=O)c1c(O)c(Cl)c(O)c(Cl)c1C3(C)C`: the pIC50 with MDA-MB-231 is below 4.40; in test [1], 6.02; in the test with MDA-MB-436 [2], 5.42; with MCF7, below 4.40. For the same compound, the inhibition entry in [3], in test [4], in test [5], in test [7] and in [8] was “Dose-dependent effect” in each case. Further, the outcome in the test with MDA-MB-436 [6] was inactive.
